The values that follow come from US20120028897A1, “METHODS AND COMPOSITIONS FOR THE TREATMENT OF FLUID RETENTION DISORDERS” (priority 2008, published 2012).

One experiment has as its system anesthetized rats. Description: Urine flow rate during and after iv peptide infusion. It counts as in vivo, rat. The procedure:
Rats were not fasted prior to clearance experiments and ranged in weight from 250-340 g at the time of study. Anesthesia was induced with an intraperitoneal injection of pentobarbital sodium (55 mg/kg BW) and maintained at a surgical plane by intermittent intravenous supplementation. Core temperature was maintained at 37° C. by a servo-controlled, heated operating table. Animals breathed spontaneously through a PE240 cannula inserted into the trachea. A jugular vein was catheterized with PE50 cannula tubing for intravenous infusion of isotonic saline containing FITC-labeled inulin (0.4% W/V, Sigma, St Louis Mo.) and two PE10 cannulae, one for supplemental anesthetic and the other for peptide infusions (described below in the experimental protocol section). The ureters were exposed through a midline ventral incision and cannulated with PE10 tubing about one cm from each kidney. Urine was collected over 20 min periods and the volume estimated by weight. A femoral artery was cannulated with PE50 tubing for continuous measurement of arterial blood pressure and intermittent blood samples (50 μl), taken at the mid point of each urine collection.
After post-surgical equilibration (−60 min) and three 20 min control clearance periods, huUgnA or B was infused into the jugular vein at 10 μl/min over a 60 min period, followed by a return to isotonic saline for the remainder of the experiment. The infused doses of huUgnA were 12, 25, 50, 100, or 200 nmol/kg BW in a total of 38 rats; huUgnB doses were 9, 18, 35, 70, and 140 nmol/kg BW in 35 rats. A UgnA mimetic, E. coli STh (ST-core), was infused into a third group of 32 rats at doses of 17, 32, 66, 133, and 266 nmol/kg. Renal excretory responses to these infusions were slow to develop and long lasting, so clearance periods were continued for 2-3 hr after the termination of the peptide infusion. This protracted time course limited protocols to one dose of one peptide in each rat. A control group of 10 rats received isotonic saline at 10 μl/min in place of the peptide infusion, but was otherwise treated in the same way as the experimental groups.
Group comparisons were made with one way analysis of variance (ANOVA) using peptide doses as column variables. Columns were further divided into pre-infusion, infusion, and post infusion subgroups to facilitate post hoc testing with Bonferroni's method for selected multiple comparisons. Row variables were individual measurements from each clearance period for each rat. Responses were tested for statistical significance by comparing control values during the pre-infusion, infusion and post infusion collection periods with corresponding values obtained from peptide-infused rats. Each experimental group included 5 different doses of huUgnA, huUgnB, or ST-core. Thus, fifteen comparisons were required for each measured variable in each group.

The target of experiment [1] is T1, GC-C receptor, GC-C-expressing T84 cell line (Homo sapiens, UniProt P25092).
T1 construct: measuring cyclic GMP synthesis in the GC-C-expressing T84 cell line; endogenous in cells; host or cells: T84 colon carcinoma cells
Put plainly: T84 cell cyclic GMP bioassay. It is filed as cell-based. How it is done: Bioassay of huUgnA-like activity. The concentration of huUgnA-like bioactivity in infused peptide solutions and in urine collected during experiments was measured using a T84 cell-based bioassay, as described previously. T84 cells are a colon carcinoma cell line that increases cyclic GMP production in response to GC-C receptor agonists such as Ugn, Gn and ST core peptide. T84 cells were grown to near confluence in 12 well culture clusters, and then incubated with unknowns or standard concentrations of huUgnA. Standards or urine samples were diluted into bioassay medium (1 mM 3-isobutyl-1-methylxanthine, 0.03 mM phenol red, 137 mM NaCl, 5.4 mM KCl, 0.25 mM Na2HPO4, 0.44 mM KH2PO4, 1.3 mM CaCl2, 1.0 mM MgSO4, 4.2 mM NaHCO3, 10 mM HEPES buffered at pH 7.0) and the pH was adjusted to 7.0, if required, using the phenol red indicator dye as a guide. This pH adjustment was necessary, as it is well-established that the response of T84 cells to UGn is highly pH dependent. The broad spectrum phosphodiesterase inhibitor (isobutyl methylxanthine) was included to prevent degradation of cyclic GMP. After 30 min, the cells were lysed and cyclic GMP levels measured by radioimmunoassay (Biomedical Technologies Inc Stoughton Mass.). Standards and unknowns were assayed in triplicate. […]

Another experiment concerns Mice. Description: Natriuretic response in mice. It counts as in vivo, mouse.

T1 sequence (P25092 24-1073): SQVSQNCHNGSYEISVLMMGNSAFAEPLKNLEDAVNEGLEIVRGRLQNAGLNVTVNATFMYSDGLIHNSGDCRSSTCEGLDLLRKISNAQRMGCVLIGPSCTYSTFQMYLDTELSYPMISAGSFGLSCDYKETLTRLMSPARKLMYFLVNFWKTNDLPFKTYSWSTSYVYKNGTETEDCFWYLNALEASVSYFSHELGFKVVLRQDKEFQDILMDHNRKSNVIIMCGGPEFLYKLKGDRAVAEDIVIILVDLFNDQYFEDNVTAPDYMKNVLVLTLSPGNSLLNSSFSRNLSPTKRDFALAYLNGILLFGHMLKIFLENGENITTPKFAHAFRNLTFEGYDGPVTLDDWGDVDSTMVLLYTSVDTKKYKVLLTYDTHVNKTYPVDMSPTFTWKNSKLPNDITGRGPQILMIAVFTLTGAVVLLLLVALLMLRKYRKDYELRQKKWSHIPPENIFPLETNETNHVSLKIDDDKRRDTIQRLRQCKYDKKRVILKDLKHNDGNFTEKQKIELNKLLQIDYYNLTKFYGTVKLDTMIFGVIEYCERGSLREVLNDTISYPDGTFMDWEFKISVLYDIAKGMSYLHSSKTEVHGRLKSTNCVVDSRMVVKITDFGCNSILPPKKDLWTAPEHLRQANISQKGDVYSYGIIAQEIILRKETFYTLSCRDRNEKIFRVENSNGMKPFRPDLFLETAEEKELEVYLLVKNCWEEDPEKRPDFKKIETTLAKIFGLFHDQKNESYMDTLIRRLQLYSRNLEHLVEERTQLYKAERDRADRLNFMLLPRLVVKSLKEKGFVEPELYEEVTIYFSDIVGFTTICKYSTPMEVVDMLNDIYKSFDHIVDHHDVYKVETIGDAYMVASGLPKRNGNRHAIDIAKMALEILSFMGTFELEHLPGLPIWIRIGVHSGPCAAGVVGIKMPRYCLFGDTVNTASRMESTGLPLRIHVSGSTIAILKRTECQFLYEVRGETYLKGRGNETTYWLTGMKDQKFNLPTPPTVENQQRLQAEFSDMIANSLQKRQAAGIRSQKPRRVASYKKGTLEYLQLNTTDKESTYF

`CC(C)C[C@H](NC(=O)[C@@H]1CSSC[C@@H]2NC(=O)[C@H](CC(C)C)NC(=O)[C@H](CCC(=O)O)NC(=O)[C@@H](NC(=O)[C@H](CC(=O)O)NC(=O)[C@H](CC(=O)O)NC(=O)[C@@H](N)CC(N)=O)CSSC[C@H](NC(=O)[C@H](C)NC(=O)[C@H](C(C)C)NC(=O)[C@H](CC(N)=O)NC(=O)[C@H](C(C)C)NC2=O)C(=O)N[C@@H]([C@@H](C)O)C(=O)NCC(=O)N1)C(=O)O` (single isomer, unassigned) [huUgnA, Asn Asp Asp Cys Glu Leu Cys Val Asn Val Ala Cys Thr Gly Cys Leu, reference compound]: the “V (urine flow rate)” value is on record as 2.34 ± 0.14 μl/min/g KW with anesthetized rats (huUgnA 12 nmol, Infusion); 2.73 ± 0.14 μl/min/g KW in the experiment on anesthetized rats (huUgnA 12 nmol, Post-infuse); 2.07 ± 0.23 μl/min/g KW with anesthetized rats (huUgnA 12 nmol, Pre-infuse); 2.98 ± 0.28 μl/min/g KW with anesthetized rats (huUgnA 25 nmol, Infusion); 3.53 ± 0.25* μl/min/g KW in the experiment with anesthetized rats (huUgnA 25 nmol, Post-infuse, * p<0.05 vs time control); 2.13 ± 0.17 μl/min/g KW with anesthetized rats (huUgnA 25 nmol, Pre-infuse). The “V (urine flow rate)” value came to 2.32 ± 0.16 μl/min/g KW with anesthetized rats (huUgnA 50 nmol, Infusion); 3.07 ± 0.20 μl/min/g KW in the experiment with anesthetized rats (huUgnA 50 nmol, Post-infuse); 2.01 ± 0.13 μl/min/g KW with anesthetized rats (huUgnA 50 nmol, Pre-infuse); 2.48 ± 0.26 μl/min/g KW with anesthetized rats (huUgnA 100 nmol, Infusion); 2.67 ± 0.23 μl/min/g KW with anesthetized rats (huUgnA 100 nmol, Post-infuse); 1.76 ± 0.22 μl/min/g KW in the experiment with anesthetized rats (huUgnA 100 nmol, Pre-infuse). In addition, the “V (urine flow rate)” value was 2.84 ± 0.40 μl/min/g KW with anesthetized rats (huUgnA 200 nmol, Infusion); 4.12 ± 0.35** μl/min/g KW with anesthetized rats (huUgnA 200 nmol, Post-infuse, ** p<0.01 vs time control); 2.14 ± 0.39 μl/min/g KW with anesthetized rats (huUgnA 200 nmol, Pre-infuse).
Consider `CC(C)C[C@H](NC(=O)[C@@H]1CSSC[C@@H]2NC(=O)[C@H](CC(C)C)NC(=O)[C@H](CCC(=O)O)NC(=O)[C@@H](NC(=O)[C@H](CC(=O)O)NC(=O)[C@H](CC(=O)O)NC(=O)[C@@H](N)CC(N)=O)CSSC[C@H](NC(=O)[C@H](C)NC(=O)[C@H](C(C)C)NC(=O)[C@H](CC(N)=O)NC(=O)[C@H](C(C)C)NC2=O)C(=O)N[C@@H]([C@@H](C)O)C(=O)NCC(=O)N1)C(=O)O` (single isomer, unassigned) [huUgnB, Asn Asp Asp Cys Glu Leu Cys Val Asn Val Ala Cys Thr Gly Cys Leu], for which the “T84 cell cGMP response on co-application of huUgnA and B” value in experiment [1] (25 nM huUgnA with 180 nM huUgnB (FIG. 2B)) is listed as “not different from those evoked by huUgnA alone”. The “potency in activating cyclic GMP synthesis, fold less potent than the A isoform” value in experiment [1] (GC-C-expressing T84 cell line) was “more than 100 fold”. Also, the “V (urine flow rate)” value in the experiment on anesthetized rats (huUgnB 9 nmol, Infusion) was found to be 2.22 ± 0.19 μl/min/g KW; with anesthetized rats (huUgnB 9 nmol, Post-infuse), 2.55 ± 0.18 μl/min/g KW; with anesthetized rats (huUgnB 9 nmol, Pre-infuse), 1.84 ± 0.28 μl/min/g KW; in the experiment on anesthetized rats (huUgnB 18 nmol, Infusion), 2.40 ± 0.15 μl/min/g KW; in the experiment on anesthetized rats (huUgnB 18 nmol, Post-infuse), 3.11 ± 0.32 μl/min/g KW; in the experiment with anesthetized rats (huUgnB 18 nmol, Pre-infuse) it was 1.79 ± 0.14 μl/min/g KW. Moreover, the “V (urine flow rate)” value with anesthetized rats (huUgnB 35 nmol, Infusion) is on record as 2.53 ± 0.16 μl/min/g KW; with anesthetized rats (huUgnB 35 nmol, Post-infuse, *** p<0.005 vs time control), 3.84 ± 0.27*** μl/min/g KW; in the experiment with anesthetized rats (huUgnB 35 nmol, Pre-infuse), 2.38 ± 0.25 μl/min/g KW; with anesthetized rats (huUgnB 70 nmol, Infusion), 3.11 ± 0.71 μl/min/g KW; in the experiment on anesthetized rats (huUgnB 70 nmol, Post-infuse, * p<0.05 vs time control) it was 3.92 ± 0.5* μl/min/g KW; with anesthetized rats (huUgnB 70 nmol, Pre-infuse), 2.04 ± 0.20 μl/min/g KW. In addition, the “V (urine flow rate)” value is 2.71 ± 0.40 μl/min/g KW with anesthetized rats (huUgnB 140 nmol, Infusion); 4.50 ± 0.80** μl/min/g KW in the experiment with anesthetized rats (huUgnB 140 nmol, Post-infuse, ** p<0.01 vs time control); 2.24 ± 0.14 μl/min/g KW in the experiment with anesthetized rats (huUgnB 140 nmol, Pre-infuse). Besides, the natriuretic response result in the experiment on Mice is given as “exhibit a natriuretic response”.
